Data: patent US20180200293A1, “STABILIZED GOLD NANOPARTICLES” (priority 2014, published 2018)

What was measured:
[1] = scavenger concentrations as high as 2 M; cited from earlier work
[2] = Electron capture by AuNPs in water, muon spin resonance (μSR); settings: degassed 0.1 M aqueous surfactant reference solution, absence of AuNPs
Source text: To deconstruct the complex electron-transfer reactions in water, we used a highly sensitive spectroscopic technique involving the positive muon (μ+) using the muon spin resonance (μSR) technique (18). The μSR technique is a type of spin spectroscopy that makes use of short-lived subatomic particles, muons (μ^+), which are sensitive magnetic and electronic probes of matter.
A degassed 0.1 M aqueous solution of the dissolved surfactant (bac-14) was used as a reference. […] These electrons therefore combine with positive muons or MuH2O^+ ions to form paramagnetic muonium, an ultra-light hydrogen atom (0.11H) that adds to the aromatic ring of the surfactant (FIG. 15).
The diamagnetic fraction shown in the transverse field spectra (FIG. 17) is enhanced when muons enter the AuNP solution, as compared with the reference solution containing a similar surfactant concentration and evaluated under the same experimental conditions (same sample geometry and magnetic field).
In aqueous solutions, the competition of Reactions 1-5 in the radiation track determines the muon fractions (19-21). […]
where [AuNP] is the AuNP concentration calculated to be 4.89×10^-7 M (see supplementary information) and the muon thermalization rate (10) is at least 1 ns−1.
The lower limit of the electron capture rate constant (ke) for the AuNPs, using Eq. 1, was determined to be 2×10^15 M^−1 s^−1. […]

Row | SMILES | electron capture rate (reported for known scavengers) [1] [M⁻¹ s⁻¹] | trapping of solvated or pre-solvated electrons [2]
1 | C[S+](C)[O-] [DMSO] | 8.1e+11 | –
2 | O=[N+]([O-])[O-].[K+] [KNOB] | 1.2e+13 | –
3 | CCCCCCCCCCCCCC[N+](C)(C)Cc1ccccc1.[Cl-] [bac-14, Benzyldimethyltetradecylammonium chloride] | – | unable to effectively trap the solvated or pre-solvated electrons
4 | CC(C)O [isopropanol] | 2.3e+11 | –
